According to paper PMC8952364, “Polyphenols as Inhibitors of Antibiotic Resistant Bacteria—Mechanisms Underlying Rutin Interference with Bacterial Virulence” (Pharmaceuticals, 2022):
Converted amounts (≈) assume the structure as drawn. Read-outs that look alike come from different tables or passages of the source.

Columns and labels:
[1] = system: Methicillin resistant S. aureus IBRS MRSA 011; test: Antimicrobial microdilution assay (MIC/MBC); format: cell-based, Staphylococcus aureus; conditions: for MIC: 37 °C, 24 h; for MBC: subcultivation, 24 h at 37 °C
Procedure: (§1) The bacterial suspension (0.5 Mc Farland) was prepared, and twenty-fold dilutions of these suspensions were mixed in a 1:10 ratio with the corresponding polyphenol dilution (0.0039–1 mg/mL). Microtiter plates were incubated at 37 °C for 24 h. The lowest concentrations without visible growth (under a binocular microscope) were defined as MICs. The bactericidal concentrations (MBCs) were determined by serial subcultivation of 2 μL of the well’s content and further incubation for 24 h at 37 °C. Streptomycin (SigmaAldrich, Darmstadt, Germany) was used as a positive control. The polyphenols were obtained from Extrasynthese, Rhone, France (rutin, isoquercitrin) and SigmaAldrich, Germany (hesperetin, hesperidin, naringenin, naringin, taxifolin, morin, chlorogenic acid, ferulic acid, p-coumaric acid, and gallic acid). The stock compounds were prepared in ethanol (30%), and adequate ethanol concentrations were used as the negative control in the assays. Experiments were done in triplicate.

S. aureus USA300 = system: S. aureus USA300; design: method as in PMID 34295320; conditions: methicillin resistant strain; cited from earlier work
[2] = system: eleven antibiotic resistant strains of bacteria; test: Antimicrobial assay, summary over the examined strains; format: cell-based
Procedure: as §1

E. coli IBRS E003 = test: Antimicrobial microdilution assay (MIC/MBC); format: cell-based, Escherichia coli; conditions: for MIC: 37 °C, 24 h; for MBC: subcultivation, 24 h at 37 °C
Procedure: as §1

E. coli IMD989 = test: Antimicrobial microdilution assay (MIC/MBC); format: cell-based, Escherichia coli; conditions: for MIC: 37 °C, 24 h; for MBC: subcultivation, 24 h at 37 °C
Procedure: as §1

P. aeruginosa MMA83 = test: Antimicrobial microdilution assay (MIC/MBC); format: cell-based, Pseudomonas aeruginosa; conditions: for MIC: 37 °C, 24 h; for MBC: subcultivation, 24 h at 37 °C
Procedure: as §1

P. aeruginosa IBRS P001 = test: Antimicrobial microdilution assay (MIC/MBC); format: cell-based, Pseudomonas aeruginosa; conditions: for MIC: 37 °C, 24 h; for MBC: subcultivation, 24 h at 37 °C
Procedure: as §1

A. xylosoxidans 37F = test: Antimicrobial microdilution assay (MIC/MBC); format: cell-based, Achromobacter xylosoxidans; conditions: for MIC: 37 °C, 24 h; for MBC: subcultivation, 24 h at 37 °C
Procedure: as §1

[3] = system: P. aeruginosa IBRS P001 biofilm; test: Crystal violet antibiofilm assay (biofilm formation); format: cell-based, Pseudomonas aeruginosa; conditions: MIC and sub-MIC, 24 h, crystal violet, Figure 1
Procedure: After incubation, each well was washed twice with sterile PBS (phosphate-buffered saline, pH 7.4) and fixed with methanol for 10 min. After removal of methanol the plate was air-dried. The biofilm was stained with 0.1% crystal violet (Bio-Merieux, Marcy l’Etoile, France) for 30 min. The plate was washed with water, air dried, and the stain was dissolved with 200 μL of 96% ethanol (Zorka, Sabac, Serbia). The absorbance was read at 620 nm on a Multiskan™ FC microplate photometer (Thermo Scientific™, Waltham, MA, USA). The results are presented as biofilm forming capacity (%) compared to control.

HaCaT cells = test: Cytotoxicity in HaCaT cell line (crystal violet assay); format: cell-based, human; conditions: HaCaT
Procedure: For determination of the polyphenols’ cytotoxic effect, a crystal violet assay was used, with modifications. The cytotoxic effect of polyphenols was analyzed on spontaneously immortalized human skin keratinocytes (HaCaT, AddexBio No. T0020001, San Diego, CA, USA) cell lines. […] Cells (1 × 10^4 cells/well) were seeded in a 96-well plate (Sarstedt, Nümbrecht, Germany) 24 h before treatment. […] Cells were incubated with the compounds for 24 h. […] After crystal violet was removed, the plates were washed in a stream of tap water and left to air-dry at room temperature for 24 h. The absorbance was measured in a microplate reader (Multiskan™ FC Microplate Photometer, Thermo Scientific™) at 590 nm. The results were expressed as IC50 value in μg/mL. The criterion used to categorize the cytotoxic activity polyphenols was as follows: […] All analyses were performed in triplicate; each replicate was also quantified three times. Data were expressed as mean standard deviation, where applicable.

K. pneumoniae IT977 = test: Antimicrobial microdilution assay (MIC/MBC); format: cell-based, Klebsiella pneumoniae; conditions: for MIC: 37 °C, 24 h; for MBC: subcultivation, 24 h at 37 °C
Procedure: as §1

K. pneumoniae Ni9 = test: Antimicrobial microdilution assay (MIC/MBC); format: cell-based, Klebsiella pneumoniae; conditions: for MIC: 37 °C, 24 h; for MBC: subcultivation, 24 h at 37 °C
Procedure: as §1

S. infantis 1371/1 = test: Antimicrobial microdilution assay (MIC/MBC); format: cell-based, Salmonella Infantis; conditions: for MIC: 37 °C, 24 h; for MBC: subcultivation, 24 h at 37 °C
Procedure: as §1

A. baumannii 6077/12 = test: Antimicrobial microdilution assay (MIC/MBC); format: cell-based, Acinetobacter baumannii; conditions: for MIC: 37 °C, 24 h; for MBC: subcultivation, 24 h at 37 °C
Procedure: as §1

A. baumannii S2/2 = test: Antimicrobial microdilution assay (MIC/MBC); format: cell-based, Acinetobacter baumannii; conditions: for MIC: 37 °C, 24 h; for MBC: subcultivation, 24 h at 37 °C
Procedure: as §1

[4] = system: E. coli (0157:H7 ATCC 51659); design: method as in PMID 34073447; conditions: cited from earlier work
S. aureus (ATCC 25923) = system: S. aureus (ATCC 25923); design: method as in PMID 34073447; conditions: cited from earlier work
[5] = system: P. aeruginosa (NRRLB-272); design: method as in PMID 34073447; conditions: cited from earlier work

O=C1c2c(O)cc(O)cc2OC(c2ccc(O)c(O)c2)C1O (stereo not drawn) [Taxifolin, taxifolin]
MIC [1]: 250 µg/mL (≈ 822 µM)
MIC ([1]; Staphylococcus aureus, MRSA, read-out: MIC): 250 µg/mL (≈ 822 µM)
MBC ([1]; Staphylococcus aureus, MRSA, read-out: MBC): 500 µg/mL (≈ 1640 µM)
MIC (S. aureus USA300): 512 µg/mL (≈ 1680 µM)
MIC ([2]; antibiotic resistant strains of Table 1, read-out: lowest MIC among the examined strains): 250 µg/mL (≈ 822 µM)
MIC (E. coli IBRS E003; Escherichia coli, IBRSE003, read-out: MIC): 500 µg/mL (≈ 1640 µM)
MBC (E. coli IBRS E003; Escherichia coli, IBRSE003, read-out: MBC): 1000 µg/mL (≈ 3290 µM)
MIC (E. coli IMD989; Escherichia coli, IMD989, read-out: MIC): 1000 µg/mL (≈ 3290 µM)
MBC (E. coli IMD989; Escherichia coli, IMD989, read-out: MBC): 1000 µg/mL (≈ 3290 µM)
MIC (P. aeruginosa MMA83; Pseudomonas aeruginosa, MMA83, read-out: MIC): 1000 µg/mL (≈ 3290 µM)
MBC (P. aeruginosa MMA83; Pseudomonas aeruginosa, MMA83, read-out: MBC): > 1000 µg/mL
MIC (P. aeruginosa IBRS P001; Pseudomonas aeruginosa, IBRSP001, read-out: MIC): 250 µg/mL (≈ 822 µM)
MBC (P. aeruginosa IBRS P001; Pseudomonas aeruginosa, IBRSP001, read-out: MBC): 500 µg/mL (≈ 1640 µM)
MIC (A. xylosoxidans 37F; Achromobacter xylosoxidans, 37F, read-out: MIC): 1000 µg/mL (≈ 3290 µM)
MBC (A. xylosoxidans 37F; Achromobacter xylosoxidans, 37F, read-out: MBC): 1000 µg/mL (≈ 3290 µM)
reduction of biofilm formation (biomass), in words [3]: not significantly altered
IC50 (HaCaT cells; Homo sapiens, 24 h treatment, crystal violet, read-out: IC50 (compound concentration that inhibited 50% of the cell growth)): 495 ± 47 µg/mL (≈ 1630 µM)
MIC (K. pneumoniae IT977; Klebsiella pneumoniae, IT977, read-out: MIC): > 1000 µg/mL
MBC (K. pneumoniae IT977; Klebsiella pneumoniae, IT977, read-out: MBC): > 1000 µg/mL
MIC (K. pneumoniae Ni9; Klebsiella pneumoniae, NI9, read-out: MIC): 1000 µg/mL (≈ 3290 µM)
MBC (K. pneumoniae Ni9; Klebsiella pneumoniae, NI9, read-out: MBC): 1000 µg/mL (≈ 3290 µM)
MIC (S. infantis 1371/1; Salmonella enterica, 1371/1, read-out: MIC): > 1000 µg/mL
MBC (S. infantis 1371/1; Salmonella enterica, 1371/1, read-out: MBC): > 1000 µg/mL
MIC (A. baumannii 6077/12; Acinetobacter baumannii, 6077/12, read-out: MIC): 500 µg/mL (≈ 1640 µM)
MBC (A. baumannii 6077/12; Acinetobacter baumannii, 6077/12, read-out: MBC): 1000 µg/mL (≈ 3290 µM)
MIC (A. baumannii S2/2; Acinetobacter baumannii, S2/2, read-out: MIC): 500 µg/mL (≈ 1640 µM)
MBC (A. baumannii S2/2; Acinetobacter baumannii, S2/2, read-out: MBC): 500 µg/mL (≈ 1640 µM)

COc1ccc([C@@H]2CC(=O)c3c(O)cc(O[C@@H]4O[C@H](CO[C@@H]5O[C@@H](C)[C@H](O)[C@@H](O)[C@H]5O)[C@@H](O)[C@H](O)[C@H]4O)cc3O2)cc1O [Hesperidin, hesperidin]
MIC [4]: 1130 µg/mL (≈ 1850 µM)
MIC [1]: 500 µg/mL (≈ 819 µM)
MBC [1]: 1000 µg/mL (≈ 1640 µM)
MIC (S. aureus (ATCC 25923)): 1530 µg/mL (≈ 2510 µM)
MIC towards a range of antibiotic-resistant bacterial strains ([2]; summary of Table 1): ≥ 500 µg/mL
MIC (E. coli IBRS E003): >1000 µg/mL
MBC (E. coli IBRS E003): >1000 µg/mL
MIC (E. coli IMD989): >1000 µg/mL
MBC (E. coli IMD989): >1000 µg/mL
MIC (P. aeruginosa MMA83): 1000 µg/mL (≈ 1640 µM)
MBC (P. aeruginosa MMA83): 1000 µg/mL (≈ 1640 µM)
MIC (P. aeruginosa IBRS P001): 500 µg/mL (≈ 819 µM)
MBC (P. aeruginosa IBRS P001): 1000 µg/mL (≈ 1640 µM)
MIC [5]: 1270 µg/mL (≈ 2080 µM)
MIC (A. xylosoxidans 37F): 1000 µg/mL (≈ 1640 µM)
MBC (A. xylosoxidans 37F): 1000 µg/mL (≈ 1640 µM)
reduction of biofilm formation (biomass), in words [3]: significant (****, p < 0.0001) reduction
cytotoxicity towards HaCaT, in words (HaCaT cells; 24 h): non-cytotoxic properties
IC50 (compound concentration that inhibited 50% of the cell growth) (HaCaT cells; 24 h treatment, crystal violet): >1000 µg/mL
cytotoxicity category (HaCaT cells; maximal tested concentrations (1 mg/mL)): no cytotoxicity (IC50 > 501 µg/mL = no cytotoxicity)
MIC (K. pneumoniae IT977): 1000 µg/mL (≈ 1640 µM)
MBC (K. pneumoniae IT977): 1000 µg/mL (≈ 1640 µM)
MIC (K. pneumoniae Ni9): 1000 µg/mL (≈ 1640 µM)
MBC (K. pneumoniae Ni9): 1000 µg/mL (≈ 1640 µM)
MIC (S. infantis 1371/1): >1000 µg/mL
MBC (S. infantis 1371/1): >1000 µg/mL
MIC (A. baumannii 6077/12): 500 µg/mL (≈ 819 µM)
MBC (A. baumannii 6077/12): 500 µg/mL (≈ 819 µM)
MIC (A. baumannii S2/2): 500 µg/mL (≈ 819 µM)
MBC (A. baumannii S2/2): 500 µg/mL (≈ 819 µM)
